# Measurements as given in US5416194A, “Polypeptide having affinity for lipopolysaccharide and method for preparing the same” (Seikagaku Kogyo Co., Ltd., priority 1987, dated 1995).
# Where no end group is shown, it is not given here.
# Columns and labels:
# [1] = test system: LPS sensitized erythrocyte (human O-type); test: Hemolysis activity on LPS sensitized erythrocyte; type: cell-based
# Protocol: To 1 ml of suspension containing mainly 2.5% human O-type erythrocyte, 0.5 ml of LPS (1 mg/ml ) was added and the mixture was shaken at […] for 1 hour to mix, followed by washing with saline solution.
# A mixture of 50 μl of 0.5% LPS sensitized erythrocyte, 50 μl of 2-fold series diluted solution of 0.5% polypeptide of the present invention and 100 μl of Tris-HCl-buffered saline saline buffer (pH 7.2) was maintained at 37° C. for 1 hour and thereafter 2.3 ml of physiologic saline was added thereto, followed by centrifugation with 2,500 rpm for 10 minutes. The amount of hemoglobin in the supernatant was determined by use of […] absorption. Also, the hemolysis pattern on a micro plate was determined by use of a micro plate reader (Corona MPT-100: trade name) after maintaining a mixture of 50 μl of 0.5% LPS sensitized erythrocyte and 50 μl of 2-fold series diluted solution of 0.5% polypeptide at 37° C. for 1 hour.
# [2] = test system: C factor (activation with LPS derived from E. coli 0111 B4 strain); test: Inhibition of activation of C factor by LPS; type: biochemical, Horseshoe crab
# Protocol: The acidic extract, concentrated and dried, was redissolved in 20mM HCl aq. soln. and then added into a Sephadex G-50 column (3.0×90.0 cm) (previously equilibrated with 20mM HCl aq. soln.) to effect gel filtration. The eluted fractions inhibiting activation of C factor with LPS (one derived from E. coli 0111 B4 strain was used) (Horseshoe crab blood coagulating serine protease precursor; LPS-sensitive factor named by the present inventors, Nakamura et al., Eur. J. Biochem., 154, 511 (1986 ) ) were collected, and the pH of the pooled fractions was adjusted to 6.0 with NaOH aq. soln.
# The test results for the inhibition effect of the polypeptide (SEQ ID NO: 1) of the present invention against activation of C factor by LPS are shown in FIG. 2 and FIG. 3. FIG. 2 and FIG. 3 show the results in the absence or presence (1M) of sodium chloride, respectively. […] This property of binding electrically with LPS has been discovered by the present inventors. In FIG. 2 and FIG. 3, the marks (o) and show the results of the polypeptide of the present invention and polylysine, respectively.
# [3] = Gel precipitin reaction / double diffusion test in 1% agarose gel; type: binding
# Protocol: In a solution of 1% agarose (0.1% NaN3 was added) dissolved in Tris-HCl-physiologic saline of pH 7.2, Beronall buffer of pH 8.6 and acetate buffer of pH 4.6, a sedimentation line was formed between LPS and the polypeptide (SEQ ID NO: 1) of the present invention or anti-LPS factor {basic protein having MW of 11,600, consisting of amino acid 102 residue obtained from extract (lysate) of Tachypleus tridentatus hemocyte; hereinafter referred to "ALF"}. The line was dyed in amide black. The diluent used for the polypeptide of the present invention was 50 mM Tris HCl--0.15M NaCl (pH 7.2).
# [4] = test system: bacteria; test: Antibacterial activity in general, inhibition circle on agar containing bacteria; type: cell-based
# Protocol: (§1) Twenty μl of a 2-fold series diluted solution containing 0.5% polypeptide (SEQ ID NO: 1) of the present invention and 20 μl of bacterium solution (10^6 to 10^7/ ml) were cultured onto 160 μl of a culture medium of Penassay or a synthetic medium of Jarvis. After 18 hours at 37° C., its turbidity was measured by use of a micro plate reader at 550 nm and also partial live bacteria number and inhibition circle were measured.
# [5] = test system: Spleen cells (SC) of C57BL male mouse; test: Inhibition of blastogenesis of mouse lymphocyte by LPS (3H-TdR uptake, microscopy); type: cell-based; details: for magnification and colonization (blastogenesis) under the microscope: then 50 μg/ml LPS, three days; for inhibition of blastogenesis of lymphocyte: in the presence of LPS, 72 hours, 3H-TdR, FIG. 5
# Protocol: Spleen cells (SC) of C57BL male mouse (5 weeks age) was collected by use of Ficoll-Hypaque gravity centrifugation and suspended in RPMI-1640 culture medium (no serum or added with BSA, FCS). The resulting culture medium was adjusted to 3×10^6 cell/ml and 100 μl was distributed into each of the 96-holes of a microtiter plate. 10 μl each of 0.4, 4, 40 and 400 μg/ml polypeptide of the present invention (LBP), finally then 80 μl of the culture medium, and finally 10 μl of 400 μg/ml LPS were added to the distibuted culture medium, followed by incubation in 5% CO2 incubator for 72 hours. ^3 H-thymidine (^3 H-TdR) was added thereto in an amount of 1 μci/10 μl 18 hours before completion of the incubation. The amount of ^3 H-TdR collected after peeling off of cells by use of cell harvester was measured by use of a liquid scintillation counter to discover the index of cell multiplication.
# Cell multiplication was observed by using a microscope to take an insert image microphotograph.
# [6] = test system: non-sensitized erythrocyte; type: cell-based, human
# [7] = test system: Salmonella typhimurium 1102(Re); test: Antibacterial activity; type: cell-based
# Protocol: as §1
# [8] = test system: Staphylococcus aureus; test: Antibacterial activity; type: cell-based; details: Gram positive bacteria
# Protocol: as §1
# [9] = test system: Salmonella minnesota 1114 W(S); test: Antibacterial activity; type: cell-based
# Protocol: as §1
# [10] = test system: Salmonella minnesota R 595(Re); test: Antibacterial activity; type: cell-based
# Protocol: as §1
# [11] = test system: Salmonella typhimurium LT 2(S); test: Antibacterial activity; type: cell-based
# Protocol: as §1
# [12] = test system: Peripheral blood mononuclear cells of healthy human; test: Inhibition of blastogenesis of human peripheral lymphocyte by LPS (3H-TdR uptake); type: cell-based; details: 10 μg/ml LBP, 50 μg/ml LPS, 72 hours, FIG. 10
# Protocol: Peripheral blood mononuclear cells (PBNC)of healthy human ([…]) were collected by use of Ficoll-Hypaque gravity centrifugation and suspended in RPMI-1640 culture medium (no serum or added with BSA, FCS). The resulting culture medium was adjusted to 2×10^6 cell/ml and 100 μl was distributed into each of the 96-holes of a microtiter plate. 10 μl of 200 μg/ml LBP, then 80 μl of the culture medium, and finally 10 μl of 400 μg/ml LPS were added to the distributed culture medium, followed by incubation in 5% CO2 incubator for, 72 hours. ^3 H-thymidine (^3 H-TdR) was added thereto in an amount of 1 μci/10 μl 18 hours before completion of the incubation. The amount of ^3 H-TdR collected after peeling of cells by use of cell harvester was measured by use of a liquid scintillation counter to discover the index of cell multiplication.
substance,measurement,setting,value
polypeptide (SEQ ID NO: 1): 17 amino acid polypeptide isolated from Tachypleus tridentatus hemocyte and also made by solid phase synthesis; C-end arginine amidated (KWCFRVCYRGICYRRCR-NH2; cysteine pairing not given here),hemolysis activity compared with ALF,"[1]; ALF = anti-LPS factor, basic protein of MW 11,600 from Tachypleus tridentatus hemocyte lysate",weaker than that of ALF
same,effect of free LPS on hemolysis,[1]; free LPS added,hemolysis was inhibited by a free LPS
same,hemolysis at room temperature,"[1]; high concentration, room temperature",exhibited hemolysis with ease
same,concentration inhibiting activation of C factor with LPS 50%,[2]; 0.1 μg/ml of LPS (E. coli 0111 B4),0.12 µg/mL
same,IC50,"[2]; 0.1 μg/ml of LPS (E. coli 0111 B4), read-out: concentration inhibiting activation of C factor with LPS 50%",50 nM
same,influence of salt concentration on inhibition of C factor activation by LPS,"[2]; absence or presence (1M) of sodium chloride, FIG. 2 and FIG. 3, polylysine as control",strong affinity for LPS which is not influenced by the salt concentration
same,"binding activity between LBP and LPS, C factor activity inhibition as index",[2]; amount of LBP relative to amount of LPS,about 20 times amount of LPS amount
same,inhibition of activation of C factor with LPS,"[2]; at 1 μM (2.3 μg/ml) polypeptide, 0.1 μg/ml of LPS (E. coli 0111 B4)",completely
same,sedimentation line with LPS in the double diffusion test,[3]; 1% agarose gel,form a sedimentation line
same,sedimentation lines in the gel precipitation reaction,"[3]; any LPS of Salmonella minnesota 1114 W, R595, E. coli 0111:B4, 0113 and J5",sharp sedimentation lines
same,antibacterial activity compared with ALF,[4]; ALF = anti-LPS factor from Tachypleus tridentatus hemocyte lysate,generally stronger than that of ALF
same,inhibition circle,[4]; on an agar containing bacteria,formed depending on the concentration
same,magnification and colonization (blastogenesis) under the microscope,"[5]; 0.2 μg/ml LBP, FIG. 7",few change were revealed
same,magnification and colonization (blastogenesis) under the microscope,"[5]; 2 μg/ml LBP, FIG. 8",magnification and colonization were hardly revealed
same,inhibition of blastogenesis of lymphocyte,[5]; 2 μg/ml LBP,≥ 90%
same,magnification and colonization (blastogenesis) under the microscope,"[5]; 20 μg/ml LBP, FIG. 9",magnification and colonization were hardly revealed
same,inhibition of blastogenesis of lymphocyte,[5]; 20 μg/ml LBP,≥ 90%
same,amount at which hemolysis of non-sensitized erythrocyte was observed,[6],≥ 3.13 μ/ml
same,antibacterial activity,[7],exhibited antibacterial activity
same,minimum antibacterial dose,[7]; 18 hours at 37° C.,1.56 µg/mL
same,antibacterial activity,[8],exhibited antibacterial activity
same,antibacterial activity,[9],exhibited antibacterial activity
same,antibacterial activity,[10],exhibited antibacterial activity
same,antibacterial activity,[11],exhibited antibacterial activity
same,minimum antibacterial dose,[11]; 18 hours at 37° C.,3.13 µg/mL
same,inhibition of blastogenesis of lymphocyte,[12],approximately 100%
